Here are results for three compounds from publication PMC6091977, “The permeation mechanism of organic cations through a CNG mimic channel” (PLoS Computational Biology, 2018).

Assay [1] deals with T1, CNGA1 channel (bovine CNGA1, bCNGA1) (Bos taurus, UniProt Q00194).
T1 sequence (Q00194 1-690): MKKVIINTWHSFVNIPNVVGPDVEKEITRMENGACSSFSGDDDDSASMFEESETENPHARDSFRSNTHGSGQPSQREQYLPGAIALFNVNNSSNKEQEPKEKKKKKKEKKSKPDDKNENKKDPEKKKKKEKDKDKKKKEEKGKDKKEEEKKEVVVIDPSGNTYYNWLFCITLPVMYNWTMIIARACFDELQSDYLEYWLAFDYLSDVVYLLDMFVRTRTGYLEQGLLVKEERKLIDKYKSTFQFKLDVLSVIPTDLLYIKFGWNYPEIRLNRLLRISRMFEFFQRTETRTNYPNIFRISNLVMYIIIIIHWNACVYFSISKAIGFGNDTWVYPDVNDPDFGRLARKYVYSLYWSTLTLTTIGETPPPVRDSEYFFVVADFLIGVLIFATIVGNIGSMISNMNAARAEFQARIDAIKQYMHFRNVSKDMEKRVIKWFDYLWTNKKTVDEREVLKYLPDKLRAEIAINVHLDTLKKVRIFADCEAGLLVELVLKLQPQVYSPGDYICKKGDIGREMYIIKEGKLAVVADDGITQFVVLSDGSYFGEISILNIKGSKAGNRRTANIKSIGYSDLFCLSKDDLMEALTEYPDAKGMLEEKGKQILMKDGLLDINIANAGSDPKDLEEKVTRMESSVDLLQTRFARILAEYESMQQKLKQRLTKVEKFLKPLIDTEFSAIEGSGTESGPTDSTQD
Description: excised-patch voltage clamp; current activation. To be noted: agonist at 1 mM; DMA as charge carrier; pH 7.4. Further details: full-length CNGA1 expressed alone from cRNA in Xenopus laevis oocytes; excised patches. Format: biochemical.

Assay [2] addresses T1, CNGA1 channel (bovine CNGA1, bCNGA1). Description: cell-based.
Another assay deals with NaK2CNG-E chimera. Put plainly: crystal structure; sitting drop vapor diffusion at 20°C, 40-44% MPD, 100 mM MES pH 6.5, 25 mM glycine; protein purified in DM with DMA·HCl; space group P222_(1); tetramers AABB and CCDD built by two-fold crystallographic symmetry.

In the case of `Nc1nc2c(ncn2[C@@H]2O[C@@H]3COP(=O)(O)O[C@H]3[C@H]2O)c(=O)[nH]1` [cGMP], in assay [1], the “excised-patch voltage clamp; current activation” value is “The cGMP activated current was measured as the difference between the current recorded in the presence”.

`CNC` [DMA, dimethylammonium]: in assay [2], the affinity, expressed as Kd, was 52 mM.

In the case of NaK2CNG-E chimera, the stoichiometry N (as a rule, the number of molecules, sites or subunits per partner or assembly) in the assay with NaK2CNG-E chimera came out at 4.
